From ChEMBL document CHEMBL1201862, “PubChem BioAssay data set” (2004)
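1) Cells in 96-well plates. 2) Compound, 48 h, 5 concentrations. 3) Linear interpolation between surrounding doses. 4) Unreached endpoint = highest concentration. Here, GI50 denotes the concentration required for 50% inhibition of growth.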 Active and inactive are the calls of the source. No stated cut-off is given here; in the data, active = GI50 up to about 1.1 µM and inactive = higher.

Legend:
Test in all cases: NCI anticancer screen, dose series, 48 h
SR = system: SR
ACHN = system: ACHN
SF-539 = system: SF-539
CCRF-CEM = system: CCRF-CEM
COLO 205 = system: COLO 205
K562 = system: K562
SF-268 = system: SF-268
HL-60 = system: HL-60
IGROV-1 = system: IGROV-1
NCI-H226 = system: NCI-H226
SF-295 = system: SF-295
SK-MEL-28 = system: SK-MEL-28
HCT-116 = system: HCT-116
LOX IMVI = system: LOX IMVI
MDA-MB-231 = system: MDA-MB-231
TK-10 = system: TK-10
Malme-3M = system: Malme-3M
OVCAR-4 = system: OVCAR-4
BT-549 = system: BT-549
UACC-257 = system: UACC-257
OVCAR-8 = system: OVCAR-8
RPMI-8226 = system: RPMI-8226
HOP-62 = system: HOP-62
SW-620 = system: SW-620
MDA-N = system: MDA-N
A549 = system: A549
T47D = system: T47D
HOP-92 = system: HOP-92
SK-MEL-2 = system: SK-MEL-2
UACC-62 = system: UACC-62
HCT-15 = system: HCT-15
SK-OV-3 = system: SK-OV-3
RXF 393 = system: RXF 393
SN12C = system: SN12C
SNB-75 = system: SNB-75
U-251 = system: U-251
NCI-H460 = system: NCI-H460
OVCAR-3 = system: OVCAR-3
M14 = system: M14
SNB-19 = system: SNB-19
MDA-MB-435 = system: MDA-MB-435
MCF7 = system: MCF7
PC-3 = system: PC-3
EKVX = system: EKVX
NCI-H23 = system: NCI-H23
NCI/ADR-RES = system: NCI/ADR-RES
CAKI-1 = system: CAKI-1
786-0 = system: 786-0
NCI-H522 = system: NCI-H522
DU-145 = system: DU-145
A498 = system: A498
HT-29 = system: HT-29
SK-MEL-5 = system: SK-MEL-5
HCC 2998 = system: HCC 2998
OVCAR-5 = system: OVCAR-5
MOLT-4 = system: MOLT-4
Hs-578T = system: Hs-578T
KM12 = system: KM12
KM-20L2 = system: KM-20L2
DLD-1 = system: DLD-1
DMS-114 = system: DMS-114
UO-31 = system: UO-31
LXFL 529 = system: LXFL 529
SNB-78 = system: SNB-78
HOP-18 = system: HOP-18
M19-MEL = system: M19-MEL
DMS-273 = system: DMS-273

With `CC(C)(CCCCC(C)(C)NCC1COc2ccccc2O1)NCC1COc2ccccc2O1` (stereo unspecified) the GI50 (SR) was > 10 µM (inactive), the GI50 (ACHN) was > 10 µM (inactive) and the GI50 (SF-539) was 1.85 µM (inactive). For the same compound, the GI50 (CCRF-CEM) was > 10 µM (inactive), the GI50 (COLO 205) was 2.12 µM (inactive) and the GI50 (K562) was > 10 µM (inactive). For the same compound, the GI50 (SF-268) was 5.45 µM (inactive), the GI50 (HL-60) was > 10 µM (inactive) and the GI50 (IGROV-1) was > 10 µM (inactive). For the same compound, the GI50 (NCI-H226) was > 10 µM (inactive), the GI50 (SF-295) was 9.95 µM (inactive) and the GI50 (SK-MEL-28) was 2.16 µM (inactive). The GI50 (HCT-116) was 7.91 µM (inactive), the GI50 (LOX IMVI) was 3.33 µM (inactive) and the GI50 (MDA-MB-231) was 3.54 µM (inactive). For the same compound, the GI50 (TK-10) was > 10 µM (inactive), the GI50 (Malme-3M) was 3.15 µM (inactive) and the GI50 (OVCAR-4) was > 10 µM (inactive). The GI50 (BT-549) was > 10 µM (inactive), the GI50 (UACC-257) was 2.04 µM (inactive) and the GI50 (OVCAR-8) was > 10 µM (inactive). For the same compound, the GI50 (RPMI-8226) was > 10 µM (inactive), the GI50 (HOP-62) was > 10 µM (inactive) and the GI50 (SW-620) was 9.75 µM (inactive). For the same compound, the GI50 (MDA-N) was 2.81 µM (inactive), the GI50 (A549) was > 10 µM (inactive) and the GI50 (T47D) was 7.83 µM (inactive). The GI50 (HOP-92) was 2.19 µM (inactive), the GI50 (SK-MEL-2) was 3.29 µM (inactive) and the GI50 (UACC-62) was 3.43 µM (inactive). The GI50 (HCT-15) was 7.98 µM, the GI50 (SK-OV-3) was > 10 µM (inactive) and the GI50 (RXF 393) was 3.18 µM (inactive). The GI50 (SN12C) was > 10 µM (inactive), the GI50 (SNB-75) was 9.38 µM (inactive) and the GI50 (U-251) was 4.47 µM (inactive). For the same compound, the GI50 (NCI-H460) was > 10 µM (inactive), the GI50 (OVCAR-3) was > 10 µM (inactive) and the GI50 (M14) was 1.76 µM (inactive). The GI50 (SNB-19) was > 10 µM (inactive), the GI50 (MDA-MB-435) was 1.81 µM (inactive) and the GI50 (MCF7) was 5.98 µM (inactive). For the same compound, the GI50 (PC-3) was > 10 µM (inactive), the GI50 (EKVX) was > 10 µM (inactive) and the GI50 (NCI-H23) was > 10 µM (inactive). The GI50 (NCI/ADR-RES) was > 10 µM (inactive), the GI50 (CAKI-1) was > 10 µM (inactive) and the GI50 (786-0) was 3.25 µM (inactive). The GI50 (NCI-H522) was 5.51 µM (inactive), the GI50 (DU-145) was > 10 µM (inactive) and the GI50 (A498) was > 10 µM (inactive). For the same compound, the GI50 (HT-29) was 2.47 µM (inactive), the GI50 (SK-MEL-5) was 1.6 µM (inactive) and the GI50 (HCC 2998) was 2.42 µM (inactive). For the same compound, the GI50 (OVCAR-5) was > 10 µM (inactive), the GI50 (MOLT-4) was > 10 µM (inactive) and the GI50 (Hs-578T) was 5.66 µM (inactive). The GI50 (KM12) was > 10 µM (inactive).

`Cc1ccc(SC(C)/C=C/NNC2=NN=C(c3ccccc3)C(c3ccccc3)N2)cc1` (stereo unspecified) was tested, and the GI50 (SR) was 11.5 µM (inactive), the GI50 (ACHN) was 29.6 µM (inactive) and the GI50 (KM-20L2) was 14 µM (inactive). The GI50 (SF-539) was 34.2 µM (inactive), the GI50 (DLD-1) was 27.4 µM (inactive) and the GI50 (DMS-114) was 28.8 µM (inactive). The GI50 (CCRF-CEM) was 21.5 µM (inactive), the GI50 (COLO 205) was 36.1 µM (inactive) and the GI50 (K562) was 36.9 µM (inactive). The GI50 (SF-268) was 28 µM (inactive), the GI50 (HL-60) was 13 µM (inactive) and the GI50 (IGROV-1) was 31.1 µM (inactive). For the same compound, the GI50 (UO-31) was 12.4 µM (inactive), the GI50 (NCI-H226) was 29 µM (inactive) and the GI50 (SF-295) was 30.3 µM (inactive). The GI50 (SK-MEL-28) was 76.4 µM (inactive), the GI50 (HCT-116) was 39.6 µM (inactive) and the GI50 (LXFL 529) was 25.8 µM (inactive). For the same compound, the GI50 (LOX IMVI) was 25.7 µM (inactive), the GI50 (TK-10) was 75.7 µM (inactive) and the GI50 (Malme-3M) was 49.8 µM (inactive). The GI50 (OVCAR-4) was 29.1 µM (inactive), the GI50 (UACC-257) was 31.5 µM (inactive) and the GI50 (OVCAR-8) was 31.7 µM (inactive). The GI50 (RPMI-8226) was 27.9 µM (inactive), the GI50 (SW-620) was 46.5 µM (inactive) and the GI50 (A549) was 33.1 µM (inactive). The GI50 (HOP-92) was 20 µM (inactive), the GI50 (SK-MEL-2) was 23.4 µM (inactive) and the GI50 (SNB-78) was 66.7 µM (inactive). For the same compound, the GI50 (UACC-62) was 14.9 µM (inactive), the GI50 (HCT-15) was 26.9 µM and the GI50 (SK-OV-3) was 32.2 µM (inactive). The GI50 (SN12C) was 36.4 µM (inactive), the GI50 (SNB-75) was 20.7 µM (inactive) and the GI50 (NCI-H460) was 33.1 µM (inactive). For the same compound, the GI50 (OVCAR-3) was 25.5 µM (inactive), the GI50 (M14) was 38 µM (inactive) and the GI50 (EKVX) was 44.8 µM (inactive). For the same compound, the GI50 (NCI-H23) was 48.9 µM (inactive), the GI50 (CAKI-1) was 13.5 µM (inactive) and the GI50 (786-0) was 39.6 µM (inactive). For the same compound, the GI50 (NCI-H522) was 23.1 µM (inactive), the GI50 (HOP-18) was 24.1 µM (inactive) and the GI50 (A498) was 40.4 µM (inactive). The GI50 (HT-29) was 13.3 µM (inactive), the GI50 (SK-MEL-5) was 14.6 µM (inactive) and the GI50 (HCC 2998) was 28 µM (inactive). For the same compound, the GI50 (M19-MEL) was 36.6 µM (inactive), the GI50 (OVCAR-5) was 21.5 µM (inactive) and the GI50 (MOLT-4) was 13.4 µM (inactive). For the same compound, the GI50 (DMS-273) was 32.5 µM (inactive) and the GI50 (KM12) was 27.5 µM (inactive).
